In US20170319501A1, “Oral Pharmaceutical Dosage Forms” (DURECT CORPORATION, priority 2007, published 2017):

Columns and labels:
[1] = intravenous bolus dosing, human, open literature data; cited from earlier work
[2] = Preliminary in vitro volatilization test on hot plate (Example 4a); assay type: physicochemical; conditions: 40 mg sample; for Oxycodone Collected (in mg), total: total of 4 time points
Excerpt: In order to further assess the abuse-resistance performance of the dosage forms of the present invention, the following in vitro volatilization test was developed. In particular, intentional abuse of controlled release pharmaceutical dosage forms may alternatively be carried out by volatilization (smoking, or free-basing) techniques that can liberate active agent (in immediately active form) from commercially available controlled release carrier systems. Accordingly, a preliminary in vitro volatilization test was developed in order to assess: (1) whether oxycodone free base was more volatile than the salt (HCl) form; and (2) whether the abuse-resistant dosage forms produced according to the instant invention can prevent inhalation abuse through volatilization.
Each petri dish was fitted with a watch glass as a cover, and the covered test dishes were placed on a hot plate (setting 10). After 30 seconds each watch glass was replaced with a fresh watch glass, and this step was repeated three times (to obtain 4 time points). Any residue deposited on the bottom side of the test watch glasses was carefully transferred with an Alpha Swab (TX 761) into 40/60 ethanol/0.005M HCl solution, and the concentration of oxycodone solution was determined by HPLC. The observations taken during the test were as follows. […] It was noted that vaporized drug (and solvents where present) escaped during each change of the watch glass, which may be at least partially responsible for the low recovery noted in the HPLC results below. […] The HPLC results obtained in this Example 4a are provided below in Table 30.

[3] = Solubility of the active agent in Triacetin and in water (stated); assay type: physicochemical
[4] = Thermal gravimetric analysis of oxycodone base and oxycodone HCl; assay type: physicochemical
Protocol: Initially, thermal gravimetric analysis was used to measure the weight loss of oxycodone base and oxycodone HC1 in order to determine the correct temperature to conduct the volatilization study. Oxycodone base was subjected to increasing temperature conditions (30 to 350° C.) at a ramping rate of 20° C./min. Vaporization occurred above 200° C. and was complete at 310° C. Vaporization of oxycodone HCl (28 to 400° C.) was analogous to that of the free base up to approximately 300° C. after which significant decomposition of the salt form occurred. Based on these observations, a temperature of 280° C. was selected for this study. This temperature is above the melting point of oxycodone (to ensure adequate drug vaporization) and below 300° C. (to limit decomposition of the salt form). A maximum exposure time of 10 minutes was selected based on pre-test observations that little additional oxycodone was recovered beyond that time point.

Structure (SMILES): C[C@H](N)Cc1ccccc1 [d-amphetamine]
- unit impulse response parameter A [1]: 98.3±6.01
- unit impulse response parameter B [1]: 28.2±0.56
- unit impulse response parameter α [1]: 9.65±0.64
- unit impulse response parameter β [1]: 6.31×10^−2±3.78×10^−3

Structure (SMILES): COc1ccc2c3c1O[C@H]1C(=O)CC[C@@]4(O)[C@@H](C2)N(C)CC[C@]314.Cl [oxycodone API (HCl salt form)]
- Oxycodone Collected ([2]; time point 0.5 minutes): 1.7202 mg
- Oxycodone Collected ([2]; time point 1.0 minutes): 0.4086 mg
- Oxycodone Collected ([2]; time point 1.5 minutes): 0.1236 mg
- Oxycodone Collected ([2]; time point 2.0 minutes): 0.0270 mg
- Oxycodone Collected (in mg), total [2]: 2.2794 mg

Structure (SMILES): COc1ccc2c3c1O[C@H]1C(=O)CC[C@@]4(O)[C@@H](C2)N(C)CC[C@]314 [oxycodone API (free base form)]
- Oxycodone Collected ([2]; time point 0.5 minutes): 1.4730 mg
- Oxycodone Collected ([2]; time point 1.0 minutes): 7.2666 mg
- Oxycodone Collected ([2]; time point 1.5 minutes): 0.7356 mg
- Oxycodone Collected ([2]; time point 2.0 minutes): 0.7050 mg
- Oxycodone Collected (in mg), total [2]: 10.1802 mg

Structure (SMILES): COc1ccc2c3c1O[C@H]1C(=O)CC[C@@]4(O)[C@@H](C2)N(C)CC[C@]314 [oxycodone free base, oxycodone]
- solubility in Triacetin [3]: high solubility in Triacetin
- solubility in water [3]: low water solubility
- temperature above which vaporization occurred ([4]; ramping rate 20° C./min): above 200 °C
- temperature at which vaporization was complete ([4]; ramping rate 20° C./min): 310 °C

Structure (SMILES): COc1ccc2c3c1O[C@H]1C(=O)CC[C@@]4(O)[C@@H](C2)N(C)CC[C@]314.Cl [oxycodone in salt form, oxycodone HCl]
- solubility in Triacetin [3]: low solubility in Triacetin
- solubility in water [3]: high solubility in water
- temperature after which significant decomposition occurred ([4]; 28 to 400° C.): approximately 300 °C
